Results taken from article PMC6934184, “Selective DNA-PKcs inhibition extends the therapeutic index of localized radiotherapy and chemotherapy” (The Journal of Clinical Investigation, 2019).

Biological target: T1, INSR (Homo sapiens, UniProt P06213)
T1 construct: purchased Thermo Fisher Scientific (Life Technologies) SelectScreen
Experiment: SelectScreen Z'LYTE
Type: biochemical
Method in brief: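 NU5455 was profiled across the SelectScreen Broad panel of kinase activity and binding assays. Z'LYTE reactions such as CSF1R ran at apparent Km ATP, while the Adapta CAMK1 assay used ATP listed as 10. Values are given as percent.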

T1 sequence (P06213 28-1382): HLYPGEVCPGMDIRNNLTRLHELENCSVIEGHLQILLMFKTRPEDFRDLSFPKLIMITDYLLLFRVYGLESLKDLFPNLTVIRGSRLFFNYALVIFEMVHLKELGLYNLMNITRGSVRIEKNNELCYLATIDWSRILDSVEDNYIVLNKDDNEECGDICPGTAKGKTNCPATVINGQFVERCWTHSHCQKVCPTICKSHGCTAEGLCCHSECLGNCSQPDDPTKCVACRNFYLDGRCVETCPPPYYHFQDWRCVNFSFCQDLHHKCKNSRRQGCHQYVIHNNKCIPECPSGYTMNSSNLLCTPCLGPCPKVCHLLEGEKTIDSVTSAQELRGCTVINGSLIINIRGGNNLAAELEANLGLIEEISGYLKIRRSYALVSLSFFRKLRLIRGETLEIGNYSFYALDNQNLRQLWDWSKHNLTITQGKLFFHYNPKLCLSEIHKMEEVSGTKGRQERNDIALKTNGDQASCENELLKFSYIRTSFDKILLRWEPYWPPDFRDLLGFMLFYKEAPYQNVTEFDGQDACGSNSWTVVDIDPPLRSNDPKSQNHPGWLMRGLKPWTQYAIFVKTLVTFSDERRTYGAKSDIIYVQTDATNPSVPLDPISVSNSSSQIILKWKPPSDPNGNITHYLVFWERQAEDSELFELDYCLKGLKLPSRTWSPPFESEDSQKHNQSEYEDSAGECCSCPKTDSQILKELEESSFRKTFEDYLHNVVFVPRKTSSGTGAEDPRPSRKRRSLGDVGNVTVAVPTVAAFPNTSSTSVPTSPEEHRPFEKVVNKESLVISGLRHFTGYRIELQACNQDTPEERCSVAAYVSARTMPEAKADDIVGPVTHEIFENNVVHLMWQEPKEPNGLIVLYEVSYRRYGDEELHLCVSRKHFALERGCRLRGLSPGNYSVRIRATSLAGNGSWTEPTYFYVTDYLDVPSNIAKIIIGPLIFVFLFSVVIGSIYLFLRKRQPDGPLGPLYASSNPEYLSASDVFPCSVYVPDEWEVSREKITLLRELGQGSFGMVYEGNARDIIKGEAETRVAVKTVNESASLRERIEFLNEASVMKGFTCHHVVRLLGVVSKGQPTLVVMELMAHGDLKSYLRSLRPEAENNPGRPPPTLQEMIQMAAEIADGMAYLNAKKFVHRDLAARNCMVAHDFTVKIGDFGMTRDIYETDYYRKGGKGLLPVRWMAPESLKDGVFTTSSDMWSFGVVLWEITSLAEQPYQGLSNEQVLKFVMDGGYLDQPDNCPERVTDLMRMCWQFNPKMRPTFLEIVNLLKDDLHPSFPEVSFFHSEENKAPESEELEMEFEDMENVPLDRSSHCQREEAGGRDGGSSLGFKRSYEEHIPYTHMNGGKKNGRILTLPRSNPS

Compound: CN(C(=O)CN1CCOCC1)c1ccc2sc3c(-c4cccc5c(=O)cc(N6CC7CCC(C6)O7)oc45)cccc3c2c1 [NU5455]
- inhibition at 1 µM: 4.1%
